Data as given in the NIST ThermoML archive (doi:10.1016/j.jct.2016.07.041).

Assay: xn = mol fraction of the nth substance listed
Conditions: 101 kPa, Liquid; for viscosity: Capillary tube (Ostwald / Ubbelohde) method; for mass density: Vibrating tube method

CCCCn1cc[n+](C)c1.F[B-](F)(F)F [1-butyl-3-methylimidazolium tetrafluoroborate] + O
Conditions	mass density, 293.15 K [kg/m3]	mass density, 303.15 K [kg/m3]	mass density, 313.15 K [kg/m3]	mass density, 323.15 K [kg/m3]	mass density, 333.15 K [kg/m3]	viscosity, 293.15 K [mPa·s]	viscosity, 303.15 K [mPa·s]	viscosity, 313.15 K [mPa·s]	viscosity, 323.15 K [mPa·s]	viscosity, 333.15 K [mPa·s]
x1 = 0.0998	1103.7	1097.3	1090.3	1083.4	1076.4	3.23	2.41	1.88	1.51	1.24
x1 = 0.1998	1141.5	1134.5	1126.9	1119.6	1112.2	5.52	4.12	3.2	2.56	2.1
x1 = 0.2994	1161.1	1153.8	1146.3	1139	1131.5	8.41	6.21	4.78	3.79	3.1
x1 = 0.3992	1173.4	1166	1158.7	1151.4	1144	12.3	8.95	6.79	5.34	4.31
x1 = 0.5005	1182.3	1175	1167.7	1160.5	1153.3	17.96	12.87	9.63	7.5	6
x1 = 0.5984	1188.9	1181.6	1174.3	1167.1	1160.1	25.98	18.1	13.27	10.11	7.99
x1 = 0.6985	1194.2	1187	1179.8	1172.6	1165.7	39.21	26.48	18.9	14.06	10.79
x1 = 0.7988	1198.5	1191.4	1184.3	1177.1	1170	59.53	38.86	26.55	19.05	14.31
x1 = 0.8982	1202	1195	1187.8	1180.6	1173.6	89.35	55.67	37.01	25.16	18.53
x1 = 1	1205.1	1198	1190.8	1183.7	1176.8	139.12	82.49	52.33	35.16	24.69

NCCO [2-aminoethan-1-ol] + O
Conditions	mass density, 293.15 K [kg/m3]	mass density, 303.15 K [kg/m3]	mass density, 313.15 K [kg/m3]	mass density, 323.15 K [kg/m3]	mass density, 333.15 K [kg/m3]	viscosity, 293.15 K [mPa·s]	viscosity, 303.15 K [mPa·s]	viscosity, 313.15 K [mPa·s]	viscosity, 323.15 K [mPa·s]	viscosity, 333.15 K [mPa·s]
x1 = 0.0996	1010.9	1006.8	1002.1	996.9	991.2	2.54	1.89	1.45	1.15	0.93
x1 = 0.1991	1021.6	1016.1	1010.2	1004	997.6	5.52	3.84	2.8	2.09	1.62
x1 = 0.2986	1027.4	1021	1014.4	1007.5	1000.4	10.06	6.65	4.62	3.35	2.52
x1 = 0.3977	1029.4	1022.5	1015.4	1007.8	1000.6	15.1	9.64	6.52	4.66	3.41
x1 = 0.4967	1028.9	1021.5	1014.2	1006.6	999	19.57	12.22	8.1	5.67	4.09
x1 = 0.5958	1027	1019.4	1011.9	1004.3	996.5	22.91	14.08	9.33	6.46	4.65
x1 = 0.6946	1024.4	1016.8	1009	1001.2	993.4	24.48	15.01	9.75	6.9	4.95
x1 = 0.7932	1021.6	1013.8	1006	998.2	990.2	25	15.36	9.98	6.91	4.99
x1 = 0.8919	1018.7	1010.8	1002.9	995	987	24.58	15.16	9.94	6.89	4.99
x1 = 1	1015.5	1007.6	999.7	991.7	983.6	23.65	14.75	9.78	6.81	4.99

NCCO [2-aminoethan-1-ol] + CCCCn1cc[n+](C)c1.F[B-](F)(F)F
Conditions	mass density, 293.15 K [kg/m3]	mass density, 303.15 K [kg/m3]	mass density, 313.15 K [kg/m3]	mass density, 323.15 K [kg/m3]	mass density, 333.15 K [kg/m3]	viscosity, 293.15 K [mPa·s]	viscosity, 303.15 K [mPa·s]	viscosity, 313.15 K [mPa·s]	viscosity, 323.15 K [mPa·s]	viscosity, 333.15 K [mPa·s]
x2 = 0	1015.5	1007.6	999.7	991.7	983.6	23.65	14.75	9.78	6.81	4.99
x2 = 0.1001	1065.1	1057.3	1049.3	1041.4	1033.4	26.23	16.27	10.72	7.39	5.38
x2 = 0.2	1098.6	1090.6	1082.8	1075	1067.2	29.02	17.98	11.84	8.21	6.02
x2 = 0.2999	1123	1115.4	1107.6	1099.8	1092.1	32.91	20.36	13.45	9.29	6.82
x2 = 0.3751	1137.9	1130.3	1122.5	1114.8	1107.1	36.29	22.48	14.89	10.41	7.57
x2 = 0.5002	1157.4	1149.9	1142.3	1134.7	1127.1	43.39	26.71	17.78	12.4	9.11
x2 = 0.5997	1169.7	1162.5	1154.9	1147.4	1139.9	51.66	31.82	20.98	14.53	10.6
x2 = 0.6996	1180.2	1173	1165.4	1158.2	1150.7	61.28	37.57	24.39	17.03	12.51
x2 = 0.8	1189.4	1182.3	1174.8	1167.5	1160.3	75.78	46.5	30.43	21.12	15.41
x2 = 0.9003	1197.8	1190.6	1183.4	1176.1	1169.1	98.71	59.85	39.19	26.65	19.22
